Reference: patent US20130137701A1, “COMBINATION” (priority 2010, published 2013)
pIC50: −log10 of the molar value. Like-named read-outs stand apart in the source and are kept apart here. Values belong to the molecule of their own block, whether it stands above or below them.

How the values were obtained:
[1] = tested on: caspase 3/7 activity in UACC893 cells; experiment: Cell apoptosis assay, caspase-3/7 activation (Caspase Glo 3/7); format: cell-based, Human; details: 24 h post treatment
Protocol: (§1) JIMT-1 is a line derived from a patient clinically resistant to trastuzumab (Herceptin®). SK-BR-3-W13 is a single cell clone isolated by a cloning cylinder after a single treatment of SK-BR-3 cells with 0.5 μM lapatinib. BT-474-J4 is a single cell clone derived from a culture of BT-474 cells that were selected to grow in lapatinib to a concentration of 3 μM.
(§2) For investigation of the induction of apoptosis, cells were plated at 5,000 cells per well in a 96-well tissue culture plate and allowed to attach for approximately 24 hours. Cells were then treated with compounds as described above. 24 hours after compound treatment, the levels of active caspase 3 and caspase 7 were determined with the Caspase Glo™ 3/7 (Promega, cat G8093) according to the instructions provided by the manufacturer. 48 hours after treatment with compound, levels of apoptosis were estimated using the Roche Cell Death ELISA (Cat. No. 11 774 425 001) following the instructions provided by the manufacturer.

[2] = tested on: caspase 3/7 activity in HCC1419 cells; experiment: as above; format: cell-based, Human; details: 24 h post treatment
Protocol: as §1, §2

[3] = tested on: caspase 3/7 activity in BT474 cells; experiment: as above; format: cell-based, Human; details: 24 h post treatment
Protocol: as §1, §2

SK-BR-3-W13 = experiment: Cell growth inhibition assay (Cell Titer Glo); format: cell-based; details: Homo sapiens, 72 h; SK-BR-3-W13 (resistant line), Breast, HER2+, PIK3CA WT; 3 days; read-out: Single Agent (IC50)
Protocol: as §1
(§3) All cells were cultured without lapatinib for a minimum of 72 hours prior to cell plating. Cells were assayed in a 96-well tissue culture plate (NUNC 136102) of RPMI medium containing 10
(§4) % FBS for all cells at 2,000 cells per well except KPL4, which were plated in DMEM containing 5% FBS at 500 cells per well. […] Cells were incubated in the presence of compounds for 3 days. ATP levels were determined by adding Cell Titer Glo® (Promega) according to the manufacturer's protocol. Briefly, Cell Titer Glo® was added each plate, incubated for 20 minutes then luminescent signal was read on the SpectraMax L plate reader with a 0.5 sec integration time.
(§5) Inhibition of cell growth was estimated after treatment with compound or combination of compounds for three days and comparing the signal to cells treated with vehicle (DMSO). Cell growth was calculated relative to vehicle (DMSO) treated control wells. Concentration of compound that inhibits 50% of control cell growth (IC50) was interpolated using nonlinear regression with the equation, y=(A+(B−A)/(1+(C/x)̂D)))), where A is the minimum response (ymin), B is the maximum response (ymax), C is the inflection point of the curve (EC50) and D is the Hill coefficient. […]

BT-474-J4 = experiment: Cell growth inhibition assay (Cell Titer Glo); format: cell-based; details: Homo sapiens, 72 h, BT-474-J4 (resistant line), Breast, HER2+, PIK3CA K111N; 3 days; read-out: Single Agent (IC50)
Protocol: as §1, §3, §4, §5

UACC893 = experiment: Cell growth inhibition assay (Cell Titer Glo); format: cell-based, Human; details: UACC893, Breast, HER2+, PIK3CA H1047R, 3 days, read-out: Single Agent (IC50)
Protocol: as §3, §4, §5

HCC1937 = experiment: Cell growth inhibition assay (Cell Titer Glo); format: cell-based, Human; details: HCC1937, Breast, HER−, PIK3CA WT; 3 days; read-out: Single Agent (IC50)
Protocol: as §3, §4, §5

MDA-MB-361 = experiment: Cell growth inhibition assay (Cell Titer Glo); format: cell-based, Human; details: MDA-MB-361 (resistant line), Breast, HER2+, PIK3CA E545K, 3 days; for pIC50: Homo sapiens, 72 h, read-out: Single Agent (IC50)
Protocol: as §3, §4, §5

HCC202 = experiment: Cell growth inhibition assay (Cell Titer Glo); format: cell-based, Human; details: HCC202, Breast, HER2+, PIK3CA E545K, 3 days; for pIC50: read-out: Single Agent (IC50)
Protocol: as §3, §4, §5

MDA-MB-175-VII = experiment: Cell growth inhibition assay (Cell Titer Glo); format: cell-based, Human; details: Breast, HER−, PIK3CA WT, 3 days, read-out: Single Agent (IC50)
Protocol: as §3, §4, §5

BT-474 = experiment: Cell growth inhibition assay (Cell Titer Glo); format: cell-based, Human; details: BT-474, Breast, HER2+, PIK3CA K111N, 3 days, read-out: Single Agent (IC50)
Protocol: as §3, §4, §5

SK-BR-3 = experiment: Cell growth inhibition assay (Cell Titer Glo); format: cell-based, Human; details: SK-BR-3, Breast, HER2+, PIK3CA WT, 3 days, read-out: Single Agent (IC50)
Protocol: as §3, §4, §5

MDA-MB-453 = experiment: Cell growth inhibition assay (Cell Titer Glo); format: cell-based, Human; details: MDA-MB-453, Breast, HER2+, PIK3CA H1047R, 3 days; for pIC50: Homo sapiens, 72 h, read-out: Single Agent (IC50)
Protocol: as §3, §4, §5

JIMT-1 = experiment: Cell growth inhibition assay (Cell Titer Glo); format: cell-based, Human; details: JIMT-1 (resistant line), Breast, HER2+, PIK3CA WT, 3 days, read-out: Single Agent (IC50)
Protocol: as §1, §3, §4, §5

CHL-1 = experiment: Cell growth inhibition assay (Cell Titer Glo); format: cell-based, Human; details: CHL-1, Melanoma, HER−, PIK3CA WT, 3 days, read-out: Single Agent (IC50)
Protocol: as §3, §4, §5

KPL4 = experiment: Cell growth inhibition assay (Cell Titer Glo); format: cell-based, Human; details: KPL4, Breast, HER2+, PIK3CA H1047R, 3 days, read-out: Single Agent (IC50)
Protocol: as §3, §4, §5

ZR-75-1 = experiment: Cell growth inhibition assay (Cell Titer Glo); format: cell-based, Human; details: ZR-75-1, Breast, HER−, PIK3CA WT, 3 days, read-out: Single Agent (IC50)
Protocol: as §3, §4, §5

pIC50 (SK-BR-3-W13): 5.15
pIC50 (BT-474-J4): 5.45
pIC50 (HCC1937): < 6.00
pIC50 (MDA-MB-361): < 5.00
Single Agent (IC50, μM) (MDA-MB-361): less sensitive
Single Agent (IC50, μM) (HCC202): less sensitive
pIC50 (HCC202; Homo sapiens, HCC202, 72 h): 5.33
pIC50 (MDA-MB-175-VII; ditosylate monohydrate): 6.97
pIC50 (MDA-MB-175-VII; Homo sapiens, 72 h): > 6.70
pIC50 (BT-474; ditosylate monohydrate): 6.62
pIC50 (BT-474; Homo sapiens, BT-474, 72 h): > 6.70
pIC50 (SK-BR-3; Homo sapiens, SK-BR-3, 72 h): > 6.70
pIC50 (SK-BR-3; ditosylate monohydrate): 6.51
pIC50 (MDA-MB-453): 5.61
Single Agent (IC50, μM) (MDA-MB-453): less sensitive
Compound: CS(=O)(=O)CCNCc1ccc(-c2ccc3ncnc(Nc4ccc(OCc5cccc(F)c5)c(Cl)c4)c3c2)o1 [Compound A, N-{3-Chloro-4-[(3-fluorobenzyl)oxy]phenyl}-6-[5-({[2-(methanesulphonyl)ethyl]amino}methyl)-2-furyl]-4-quinazolinamine ditosylate monohydrate]
caspase 3/7 activity [1]: increased caspase 3/7 activity
caspase 3/7 activity [2]: slight increase in caspase 3/7 activity
caspase 3/7 activity [3]: increased caspase 3/7 activity
pIC50 (UACC893; Homo sapiens, UACC-893, 72 h): > 6.00
pIC50 (UACC893; ditosylate monohydrate): 5.97
pIC50 (JIMT-1; Homo sapiens, JIMT-1, 72 h): 5.02

pIC50 (SK-BR-3-W13): 6.78
pIC50 (MDA-MB-361): 8.05
pIC50 (HCC202): 6.69
pIC50 (HCC202; Homo sapiens, HCC202, 72 h): 6.70
pIC50 (BT-474): 7.55
pIC50 (BT-474; Homo sapiens, BT-474, 72 h): > 7.30
pIC50 (MDA-MB-453): 7.82
Compound: COc1ncc(-c2ccc3nccc(-c4ccnnc4)c3c2)cc1NS(=O)(=O)c1ccc(F)cc1F [Compound B, 2,4-difluoro-N-{2-(methyloxy)-5-[4-(4-pyridazinyl)-6-quinolinyl]-3-pyridinyl}benzenesulfonamide]
caspase 3/7 activity [1]: increased caspase 3/7 activity
caspase 3/7 activity [2]: slight increase in caspase 3/7 activity
caspase 3/7 activity [3]: increased caspase 3/7 activity
pIC50 (UACC893; Homo sapiens, UACC-893, 72 h): > 8.30
pIC50 (UACC893): 8.30
pIC50 (CHL-1): 7.42
pIC50 (CHL-1; Homo sapiens, CHL-1, 72 h): > 7.40
pIC50 (KPL4; Homo sapiens, KPL4, 72 h): > 8.30
pIC50 (KPL4): 8.52
pIC50 (ZR-75-1; Homo sapiens, ZR-75-1, 72 h): 5.89 to 8.00
pIC50 (ZR-75-1): 7.92
pIC50 (JIMT-1; Homo sapiens, JIMT-1, 72 h): > 7.52
pIC50 (JIMT-1): 7.55
